{"source": "patent US10227361B2", "about": "“Fused imidazobenzothiazole compounds” (TORRENT PHARMACEUTICALS LIMITED, priority 2014, dated 2019)", "key": {"[1]": {"conditions": "rheumatoid arthritis; possibly; cited from earlier work"}, "[2]": {"conditions": "treated up to 12-24 weeks; cited from earlier work"}, "[3]": {"conditions": "rheumatoid arthritis patients; single low dose tested; compared to placebo; cited from earlier work"}, "[4]": {"conditions": "dogs, 6-month safety study; cited from earlier work"}, "[5]": {"biological_target": "T1, purified recombinant human p38 alpha MAPK (Homo sapiens, UniProt Q16539)", "T1 construct": "purchased Millipore, USA", "T1 sequence (Q16539 whole entry)": "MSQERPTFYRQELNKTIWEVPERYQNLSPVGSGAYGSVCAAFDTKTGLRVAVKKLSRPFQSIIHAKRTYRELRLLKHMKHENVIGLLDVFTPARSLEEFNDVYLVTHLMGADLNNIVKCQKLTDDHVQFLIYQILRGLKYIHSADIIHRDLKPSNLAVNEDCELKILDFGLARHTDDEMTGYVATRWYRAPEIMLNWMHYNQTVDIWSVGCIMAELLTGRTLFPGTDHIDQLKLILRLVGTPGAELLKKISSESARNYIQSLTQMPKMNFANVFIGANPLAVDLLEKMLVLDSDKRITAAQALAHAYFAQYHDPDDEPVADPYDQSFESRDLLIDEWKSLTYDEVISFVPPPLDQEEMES", "assay": "Inhibition of p38 alpha MAPK activity: TR-FRET kinase assay", "type": "biochemical", "conditions": "read-out: P38α Inhibition; for inhibition at 1 µM: Concentration 1 μM", "procedure": "Inhibition of p38 Alpha MAPK Activity: Time-Resolved Fluorescence Resonance Energy Transfer Kinase Standard Assay (TR-FRET Assay)\nCompounds of present invention at various concentrations were premixed with DMSO. The experiment was initiated by mixing 0.5% 1.0% DMSO as vehicle/compounds with purified recombinant human p38 alpha MAPK (Millipore, USA) in the wells and 15 min incubation at RT. Thereafter, 30 nM of Biotinylated GST-ATF2 (Activation Transcription Factor2) and 100 μM of ATP were added in to the wells containing reaction mixture, followed by reincubation for 60 minutes at RT. Reaction was terminated by addition of 10 mM of EDTA and detection reagent containing anti-phosphothreonine ATF2 antibody (Perkin Elmer, USA) labelled with europium chelate and APC (Allophycocyanin) labeled streptavidin, into the reaction mixture which was further incubated for 60 minutes at room temperature. The degree of phosphorylation of the substrate (GST-ATF2) was measured using Envision multimode reader (Perkin Elmer). Percentage inhibition of p38 kinase activity was calculated by determining ratio of specific europium 665 nm energy transfer signal to reference 615 nm signal."}, "[6]": {"system": "tobacco smoke induced airway inflammation in mice", "assay": "Acute mouse model of tobacco smoke induced airway inflammation (BALF neutrophils)", "type": "in vivo", "conditions": "BAL fluid, exposure 25 minutes; for Neutrophil (*10^3 cells/animal): Mean ± SEM", "source_text": "The tobacco smoke induced airway inflammation model is used for in vivo efficacy of compound. Many investigators have used acute tobacco smoke (TS) exposure in rodents as models of airway inflammation for quick screening of anti-inflammatory therapies for COPD (J Pharmacol Exp Ther. 2008; 324(3):921-9; J Pharmacol Exp Ther. 2010; 332(3):764-75; Journal of Inflammation 2013, 10(Suppl 1):31 and Eur Respir J Suppl 2006; 663s:3850). Given its position as predominant cause of COPD, animal models using TS exposure would appear to be the logical choice for investigation (Respir Res. 2004; 2; 5:18).\nA: Efficacy Studies in Acute Mouse Model of Airway Inflammation\nMice were exposed to tobacco smoke (TS) in an acrylic chamber. Animals were exposed to TS from 8, 12, 16 cigarettes on day1, day2, day 3 respectively. From day 4 onwards till day 11, animals were exposed to TS from 20 cigarettes per day. On 11 days of exposure of mice to TS, significant inflammatory cell recruitment, predominantly neutrophils, to lungs was observed as compared to air exposed control mice (BALF neutrophil levels, nil in air control group vs 93.8±11.7*10^3 cells/animal in smoke exposed vehicle group).\nLung delivery of test compound was achieved by whole body aerosol exposure for 25 minutes in a chamber. Mice were divided in different dose groups and exposed in a chamber for 25 minutes with vehicle or Compound No. 22 (0.3 mg/ml) or Compound No. 22 (3 mg/ml)) or Compound No. 31 (0.3 mg/ml) or Compound No. 31 (1.0 mg/ml). A total quantity of 3.5 ml of either vehicle or test compound formulation (suspension formulation with D90<5μ, with Malvern Mastersizer®) was nebulized in a chamber to respective groups over 25 mins period. Test compounds were administered 2 hr prior to TS exposure from day 6 to day 11. Bronchoalveolar lavage (BAL) was performed 24 hr post last TS exposure.\nTrachea of animal was cannulated using catheter. Phosphate Buffer Saline (PBS) was used as lavage fluid. A volume of 0.5 ml was gently instilled and withdrawn and collected in microcentrifuge tube placed on ice. This procedure was repeated further 2 times.\n(§1) Lavage fluid was separated from cells by centrifugation and supernatant separated. The cell pallet was resuspended in known volume of PBS. Cells in aliquot were stained using Turk solution and total cell numbers were calculated by counting Turk stained aliquot under microscope using haemocytometer.\n(§2) The residual cell suspension was resuspended and slides prepared using cyto centrifuge technique (Cytospin 4, Thermo Shandon). The slides were then fixed with methanol, air dried and stained with May Grunwald Giemsa stain. Up to 300 cells were counted and differentiated using standard morphometric techniques under light microscopy.\nAll results are presented at individual data for each animal and mean value calculated for each group. Percentage inhibition for the neutrophil was calculated for Compound No. 22 & 31 treatment group against vehicle group."}, "[7]": {"system": "tobacco smoke (TS) and LPS induced chronic COPD model in guinea pigs", "assay": "Chronic model of COPD in guinea pigs (TS and LPS, 18 weeks)", "type": "in vivo", "procedure": "(II) Efficacy Studies in Chronic Model of COPD in Guinea Pigs\nGuinea pigs were exposed to tobacco smoke (TS) and LPS in an acrylic chamber. Exposure to TS and LPS is given in the manner as illustrated in FIG. 3 in a week for a total of 18 weeks.\nLung delivery of test material was achieved by whole body aerosol exposure for 75 minutes in a chamber. Guinea pig were divided in different dose groups and exposed to vehicle or Compound No. 31 (2 mg/ml). A total quantity of 7.0 ml of either vehicle or Compound No. 31 (suspension formulation with D90<5μ, with Malvern Mastersizer®) was nebulized in chambers to respective groups over 75 mins period. Compound No 31 was administered 2 hr prior to TS/LPS exposure once daily from week 9 to week 18. Control animals were exposed to room air instead of TS and PBS instead of LPS. Lung function and bronchoalveolar lavage (BAL) for each animal was performed 24 hr post last TS exposure.\nLung function assessment in anesthetized and tracheotomized animal was carried out using PFT maneuvers (BUXCO, USA) for determination of various parameters such as Functional Residual Capacity (FRC), Residual volume (RV), Pressure volume and flow volume relationships.\nTrachea of animal was cannulated using catheter. Phosphate Buffer Saline (PBS) was used as lavage fluid. A volume of 5.0 ml was gently instilled and withdrawn and collected in microcentrifuge tube placed on ice. This procedure was repeated further 5 times.\nas §1, §2\nAfter collection of BALF lung was fixed under constant pressure using neutral buffered formaline, which is to be used further for histopathological analysis. Hematoxylin and eosin stained slides were used for assessment of lung inflammatory cell influx and alveolar & epithelial inflammatory changes. Periodic acid-Schiff-diastase stained slides were used to evaluate mucin secreting cells and Masson's trichome stained slides were used for assessment of collagen fibers in parenchyma.\nAll results are presented at individual data for each animal and mean value calculated for each group. Percentage inhibition for the neutrophil was calculated for compound no 31 group against vehicle group."}, "[8]": {"system": "tobacco smoke induced airway inflammation in guinea pig", "assay": "Acute guinea pig model of tobacco smoke induced airway inflammation (BALF neutrophils)", "type": "in vivo, Guinea pigs", "conditions": "BAL fluid, 6 mg/ml aerosol, exposure 75 minutes", "source_text": "B. (I) Efficacy Studies in Acute Guinea Pig Model of Airway Inflammation\nGuinea pigs were exposed to tobacco smoke (TS) in an acrylic chamber. Animals were exposed to TS from 5, 10, 15 cigarettes on day 1, day 2, day 3 respectively. From day 4 onwards till day 11, animals were exposed to TS from 15 cigarettes per day. On 11 days of exposure of guinea pig to TS, significant inflammatory cell recruitment, predominantly neutrophils, to lungs was observed as compared to air exposed control guinea pig (BALF neutrophil levels, 0.23±0.052*10^6 cells/animal in air control group vs 3.5±0.62*10^6 cells/animal in smoke exposed vehicle group).\nLung delivery of test compound was achieved by whole body aerosol exposure for 75 minutes in a chamber. […] A total quantity of 7.0 ml of either vehicle or test compound formulation (suspension formulation with D90<5μ, with Malvern Mastersizer®) was nebulized in chambers to respective groups over 75 mins period. […]\nLavage fluid was separated from cells by centrifugation and supernatant separated. […] Cells in aliquot were stained using Turk solution and total cell numbers were calculated by counting Turk stained aliquot under microscope using haemocytometer. […]\nAll results are presented at individual data for each animal and mean value calculated for each group. Percentage inhibition for the neutrophil was calculated for Compound No 31 treatment group against vehicle group."}}, "data": [{"smiles": "Cc1ccc(-n2nc(C(C)(C)C)cc2NC(=O)Nc2ccc(OCCN3CCOCC3)c3ccccc23)cc1", "note": "[BIRB-796]", "values": [{"measurement": "reason for withdrawal from Phase II clinical trials", "setting": "[1]", "value": "liver enzyme elevations"}]}, {"smiles": "CNC(=O)c1ccc(C)c(-n2c(C)cc(OCc3ccc(F)cc3F)c(Br)c2=O)c1", "note": "[PH-797804]", "values": [{"measurement": "tolerability in clinical studies", "setting": "[2]", "value": "well tolerated"}]}, {"smiles": "O=c1ncn2nc(Sc3ccc(F)cc3F)ccc2c1-c1c(Cl)cccc1Cl", "note": "[Vx-745]", "values": [{"measurement": "clinical benefit", "setting": "[3]", "value": "significant clinical benefit compared to placebo"}, {"measurement": "toxicity in safety study", "setting": "[4]", "value": "undisclosed CNS toxicity"}]}, {"smiles": "Cc1c(F)cc(C(=O)NC2CC2)cc1-c1ccc(C(=O)NCC(C)(C)C)cn1", "note": "[Losmapimod]", "values": [{"measurement": "tolerability in clinical studies", "setting": "[2]", "value": "well tolerated"}]}, {"smiles": "CC(C)(C)c1cc(NC(=O)NCc2ccccc2Oc2ccc3c(c2)sc2ncc(CO)n23)n(-c2ccc(O)c(Cl)c2)n1", "note": "[Compound 22, 1-[3-tert-butyl-1-(3-chloro-4-hydroxyphenyl)-1H-pyrazol-5-yl]-3-(2-{[3-(hydroxymethyl)imidazo[2,1-b][1,3]benzothiazol-7-yl]oxy}benzyl)urea]", "values": [{"measurement": "inhibition at 1 µM", "setting": "[5]", "value": "80 to 100", "unit": "%"}, {"measurement": "% Inhibition (neutrophil, against vehicle group)", "setting": "[6]; 0.3 mg/ml aerosol", "value": 24, "unit": "%"}, {"measurement": "Neutrophil (*10^3 cells/animal)", "setting": "[6]; 0.3 mg/ml aerosol", "value": "71.2 ± 13.6 *10^3 cells/animal"}, {"measurement": "% Inhibition (neutrophil, against vehicle group)", "setting": "[6]; 3 mg/ml aerosol", "value": 62, "unit": "%"}, {"measurement": "Neutrophil (*10^3 cells/animal)", "setting": "[6]; 3 mg/ml aerosol", "value": "35.2 ± 3.7 *10^3 cells/animal"}]}, {"smiles": "COCc1cnc2sc3cc(Oc4ccccc4CNC(=O)Nc4cc(C(C)(C)C)nn4-c4ccc(O)c(Cl)c4)ccc3n12", "note": "[Compound 31, 1-[3-tert-butyl-1-(3-chloro-4-hydroxyphenyl)-1H-pyrazol-5-yl]-3-(2-{[3-(methoxymethyl)imidazo[2,1-b][1,3]benzothiazol-7-yl]oxy}benzyl)urea]", "values": [{"measurement": "inhibition at 0.1 µM", "setting": "[5]; Concentration 100 nM", "value": "80 to 100", "unit": "%"}, {"measurement": "% inhib^n (neutrophil, against vehicle group)", "setting": "[7]; guinea pig chronic COPD model, BALF, 2 mg/ml aerosol, 75 minutes", "value": 52, "unit": "%"}, {"measurement": "Neutrophil (*10^6cells)", "setting": "[7]; guinea pig chronic COPD model, BALF, 2 mg/ml aerosol, 75 minutes, once daily week 9 to 18, Mean ± SEM", "value": "3.3 ± 0.71 *10^6cells"}, {"measurement": "Composite score (Range)", "setting": "[7]; lung remodeling, histopathological analysis of lung tissue, 2 mg/ml", "value": "0.4 (0.1 to 0.5)"}, {"measurement": "Average number of mucin secreting cells/10 high power field (Range)", "setting": "[7]; mucus secretion, 2 mg/ml", "value": "301 (190-420) cells/10 high power field"}, {"measurement": "% Inhibition (neutrophil, against vehicle group)", "setting": "[6]; 0.3 mg/ml aerosol", "value": 60, "unit": "%"}, {"measurement": "Neutrophil (*10^3 cells/animal)", "setting": "[6]; 0.3 mg/ml aerosol", "value": "40.3 ± 6.2 *10^3 cells/animal"}, {"measurement": "% Inhibition (neutrophil, against vehicle group)", "setting": "[6]; 1.0 mg/ml aerosol", "value": 80, "unit": "%"}, {"measurement": "Neutrophil (*10^3 cells/animal)", "setting": "[6]; 1.0 mg/ml aerosol", "value": "20.4 ± 3.8 *10^3 cells/animal"}, {"measurement": "% Inhibition (neutrophil, against vehicle group)", "setting": "[8]", "value": 48, "unit": "%"}, {"measurement": "Neutrophil (*10^6 cells/animal)", "setting": "[8]; Mean ± SEM", "value": "1.8 ± 0.28 *10^6 cells/animal"}]}, {"smiles": "CCOC(=O)c1cnc2sc3cc(Oc4ccc(NC(=O)Nc5ccc(Cl)c(C(F)(F)F)c5)cc4)ccc3n12", "note": "[Compound 47, ethyl 7-[4-({[4-chloro-3-(trifluoromethyl)phenyl]carbamoyl}amino)phenoxy]imidazo[2,1-b][1,3]benzothiazole-3-carboxylate]", "values": [{"measurement": "inhibition at 1 µM", "setting": "[5]", "value": "≤ 20", "unit": "%"}]}, {"smiles": "Cc1nc2sc3cc(Oc4ccccc4CNC(=O)Nc4cc(C(C)(C)C)nn4-c4ccc(O)c(Cl)c4)ccc3n2c1CN1CCOCC1", "note": "[Compound 40, 1-[3-tert-butyl-1-(3-chloro-4-hydroxyphenyl)-1H-pyrazol-5-yl]-3-(2-{[2-methyl-3-(morpholin-4-ylmethyl)imidazo[2,1-b][1,3]benzothiazol-7-yl]oxy}benzyl)urea]", "values": [{"measurement": "inhibition at 1 µM", "setting": "[5]", "value": "80 to 100", "unit": "%"}]}, {"smiles": "CCOC(=O)CSCc1cn2c(n1)sc1cc(Oc3ccccc3CNC(=O)Nc3cc(C(C)(C)C)nn3-c3ccc(O)c(Cl)c3)ccc12", "note": "[Compound 30, ethyl {[(7-{2-[({[3-tert-butyl-1-(3-chloro-4-hydroxyphenyl)-1H-pyrazol-5-yl]carbamoyl}amino)methyl]phenoxy}imidazo[2,1-b][1,3]benzothiazol-2-yl)methyl]sulfanyl}acetate]", "values": [{"measurement": "inhibition at 1 µM", "setting": "[5]", "value": "80 to 100", "unit": "%"}]}, {"smiles": "COc1ccc(-n2nc(C(C)(C)C)cc2NC(=O)Nc2ccc(Oc3ccc4c(c3)sc3ncc(C(=O)O)n34)cc2)cc1Cl", "note": "[Compound 6, 7-[4-({[3-tert-butyl-1-(3-chloro-4-methoxyphenyl)-1H-pyrazol-5-yl]carbamoyl}amino)phenoxy]imidazo[2,1-b][1,3]benzothiazole-3-carboxylic acid]", "values": [{"measurement": "inhibition at 1 µM", "setting": "[5]", "value": "80 to 100", "unit": "%"}]}]}
